# In patent US20110021765A1, “FLUORINATED LANTHANIDE PROBES FOR 19F MAGNETIC RESONANCE APPLICATIONS” (priority 2007, published 2011):
# “And” between values parts separate entries of the source, which are not always exact repeats. Equal values may be shown once.
# Tests used:
# Type in all cases: physicochemical
# [1] = 19F NMR chemical shifts and longitudinal relaxation rates at 188 MHz (4.7 T, 298K); settings: for Longitudinal relaxation rate R1 ortho CF3 group / Longitudinal relaxation rate R1 other CF3 group / Limiting 19F chemical shift δF ortho CF3 group / Limiting 19F chemical shift δF other CF3 group if present: 188 MHz; for Limiting 19F chemical shift δF ortho CF3 group / Limiting 19F chemical shift δF other CF3 group if present: pH 5.5, referred to NaCF3CO2 δF −76.1 ppm
# Experimental: ^19F NMR chemical shifts and longitudinal relaxation rates for various lanthanide complexes of L^1, L^2 and L^3 were measured at 188 MHz (4.7 T, 298K).
# [2] = 19F NMR pH titration, acid-base equilibrium fit; settings: ratio of integrated 19F intensities −59/−53 and −65/−64 ppm
# Source text: Solid lines: least-squares fits to the fast-exchange acid-base equilibrium equation for the chemical shift.
# Solid lines: least-squares fits to the slow-exchange acid-base equilibrium equation for the NMR line intensity.
# The NH group of [Ln.L^4] deprotonates in alkaline conditions, causing the CF3 group of [Ho.L^4] to shift from −55.1 ppm to −36.8 ppm under basic conditions (see FIG. 3). Because the acid-base equilibrium is fast in this system ([…] lanthanide re-coordination involved), only one signal is observed, with the chemical shift corresponding to the weighted average of the chemical shifts of the individual forms.
# The higher pKa values in biofluids are the result of additional stabilization of the acidic form by carbonate coordination (see FIG. 4) (S. Aime, A. Barge, M. Botta, J. A. K. Howard, R. Kataky, M. P. Lowe, J. M. Moloney, D. Parker and A. S. de Sousa, Chem. Commun., 1999, 1047); (Y. Bretonniere, M. J. Cann, D. Parker and R. J. Slater, Org. Biomol. Chem., 2004, 2, 1624). The basic form exists as a mixture of two diastereomers, defined by the R or S configuration at the sulphur atom (Scheme 3). The experimental ratio is 6:1 (298 K, pH=8), resonating at −98 and −112 ppm respectively. […]
# [3] = Eu luminescence emission intensity ratio versus pH; settings: 298K, H2O, 0.1 M NaCl
# [4] = Comparative 19F NMR signal intensity of paramagnetic complexes versus diamagnetic [YL^1]; settings: 188 MHz (4.7 T), 298K
# Experimental: A comparative analysis examined the ortho-CF3 resonance in ^19F NMR spectra of the diamagnetic Y complex, [YL^1] (R1 0.93 s^−1, {linewidth, ω1/2=2 Hz}) and the terbium (R1 90 s^−1 {.ω1/2 90 Hz} and Dy (R1 77 s^−1 {.ω1/2 35 Hz}) analogues. Using a relaxation delay of 3 times T1, ^19F spectra were acquired over a common time interval of 30 minutes (2 mM complex, 188 MHz (4.7 T), 298K, typical S/N ratio per mM was 100:1). The relative signal intensity ratios per mM of complex (peak height times peak width at half height; processing used a line-broadening function equal to half of the observed linewidth, for the given complex resonance) for observation of the major ortho-CF3 resonance in [TmL^1], [DyL^1] and [TbL^1] versus the diamagnetic analogue, [YL^1], were 52:1 22:1 and 41:1 respectively. This is consistent with the ability to increase the number of scans acquired for the faster relaxing CF3 resonance in the paramagnetic complexes.
# [5] = N-protonated complex, pH 5.5, 188 MHz
SMILES,Longitudinal relaxation rate R1 ortho CF3 group ([1]; pH 5.5),Longitudinal relaxation rate R1 other CF3 group ([1]; pH 5.5),Limiting 19F chemical shift δF ortho CF3 group [1],Limiting 19F chemical shift δF other CF3 group if present [1],"R1 ortho CF3 group, N-protonated complex (value in parentheses) [1, 5]","R1 other CF3 group, N-protonated complex (value in parentheses) [1, 5]","δF ortho CF3 group, N-protonated complex (value in parentheses) [1, 5]","δF other CF3 group, N-protonated complex (value in parentheses) [1, 5]",Complex protonation constant pKMLH [2],Apparent protonation constant from Eu emission band intensity ratio [3],Linewidth ω1/2 of ortho-CF3 resonance [4],"Longitudinal relaxation rate R1 ortho CF3 group ([1]; pH 5.5, listed as yttrium (III) complex of ligand L^1)"
O=C([O-])CN1CCN(CC[N-]S(=O)(=O)c2cc(C(F)(F)F)ccc2C(F)(F)F)CCN(CC(=O)[O-])CCN(CC(=O)[O-])CC1.[Eu+3] [[EuL^2]^−],2.5 s⁻¹,1.5 s⁻¹,−53 ppm,−65 ppm,2.2 s⁻¹,1.2 s⁻¹,−59 ppm,−64 ppm,5.5 (±0.05),5.5,–,–
O=C([O-])CN1CCN(CC[N-]S(=O)(=O)c2cc(C(F)(F)F)ccc2C(F)(F)F)CCN(CC(=O)[O-])CCN(CC(=O)[O-])CC1.[Tb+3] [[TbL^2]^−],71 s⁻¹,23 s⁻¹,−159 ppm,−45 ppm,–,–,−59 ppm,−64 ppm,–,–,–,–
O=C([O-])CN1CCN(CC(=O)[O-])CCN(CC(=O)Nc2ccc(C(F)(F)F)cc2C(F)(F)F)CCN(CC(=O)[O-])CC1.[Tm+3] [[TmL^1]],16 s⁻¹,5.6 s⁻¹,−79.6 ppm,−55 ppm,–,–,–,–,–,–,–,–
O=C([O-])CN1CCN(CC(=O)[O-])CCN(CC(=O)Nc2ccc(C(F)(F)F)cc2C(F)(F)F)CCN(CC(=O)[O-])CC1.[Y+3] [[YL^1]],0.93 s⁻¹ and 0.9 s⁻¹,~0.9 s⁻¹,−61.3 ppm,−63.1 ppm,–,–,–,–,–,–,2 Hz,~0.9 s⁻¹
O=C([O-])CN1CCN(CC(=O)[O-])CCN(CC(=O)Nc2ccc(C(F)(F)F)cc2C(F)(F)F)CCN(CC(=O)[O-])CC1.[Yb+3] [[YbL^1]],4.6 s⁻¹,1.7 s⁻¹,−65.4 ppm,−59.6 ppm,–,–,–,–,–,–,–,–
